For one assay, the system named is E. coli UFR39. The assay is described as follows: MIC of compound alone, broth microdilution. The class given is cell-based. As to conditions: Escherichia coli, UFR39, read-out: MIC CAZ alone. In a few lines:
(§1)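 Exponential-phase inoculum, 5×10^5 cfu/mL final, in cation-supplemented MHB; 35° C in air for 16-20 h. MIC: lowest concentration giving no visible growth.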
Background: Dilution methods test growth across graded concentrations, often in twofold steps.

The test system of assay [1] is K. pneumoniae 6299. The assay is described as follows: MIC of ceftazidime (CAZ) at fixed concentration of compound (synergy), broth microdilution. The class given is cell-based. As to conditions: strain 6299; MIC of CAZ, compound fixed at 4 μg/mL. Summed up: as §1
Assay [2] relates to K. pneumoniae BAA-1898. Described as above. Type of assay: cell-based. Conditions: strain BAA-1898; MIC of CAZ, compound fixed at 4 μg/mL. Summed up: as §1
Assay [3] has as its system E. coli 190317. The description is as above. As to conditions: strain 190317; MIC of CAZ, compound fixed at 4 μg/mL. Type of assay: cell-based. Summed up:
as §1

Assay [4] has as its system P. aeruginosa CIP107051. The assay is described as above. As to conditions: strain CIP107051; MIC of CAZ, compound fixed at 4 μg/mL. The class given is cell-based. In a few lines:
as §1

Assay [5] has as its system E. cloacae P99. The description is as above. The class given is cell-based. Conditions: strain P99; MIC of CAZ, compound fixed at 4 μg/mL. Summed up:
as §1

Another assay has as its target KPC-2 (Klebsiella pneumoniae, UniProt Q9F663). Conditions: read-out: IC50 β-lactamase KPC-2; class (A); nitrocefin 200 μM, 30-min pre-incubation, enzyme 1 nM.
A further assay concerns the target AmpC (P99) (Enterobacter cloacae, UniProt P05364). Conditions: read-out: IC50 β-lactamase AmpC (P99); class (C); nitrocefin 200 μM, 30-min pre-incubation, enzyme 0.2 nM.
The target in another assay is OXA-11 (Pseudomonas aeruginosa, UniProt Q06778). As to conditions: read-out: IC50 β-lactamase OXA-11; class (D); nitrocefin 200 μM, 30-min pre-incubation, enzyme 1.2 nM.
Another assay concerns the target CMY-37 (Citrobacter freundii, UniProt P05193). Conditions: read-out: IC50 β-lactamase CMY-37; class (C); nitrocefin 200 μM, 30-min pre-incubation, enzyme 0.2 nM.
The target in another assay is CTX-M-15 (Escherichia coli, UniProt Q9EXV5). Conditions: read-out: IC50 β-lactamase CTX-M-15; class (A); nitrocefin 200 μM, 30-min pre-incubation, enzyme 0.4 nM.
The subject of assay [6] is K. pneumoniae 6299. The experiment in a line: MIC of compound alone, broth microdilution. Type of assay: cell-based. Conditions: strain 6299; compound alone. In a few lines: as §1
Assay [7] has as its system K. pneumoniae BAA-1898. The assay is described as follows: MIC of compound alone, broth microdilution. Type of assay: cell-based. As to conditions: strain BAA-1898; compound alone. In a few lines:
as §1

Assay [8] deals with E. coli 190317. The experiment in a line: MIC of compound alone, broth microdilution. Type of assay: cell-based. As to conditions: strain 190317; compound alone. In a few lines: as §1
Assay [9] deals with P. aeruginosa CIP107051. The experiment in a line: MIC of compound alone, broth microdilution. The class given is cell-based. As to conditions: strain CIP107051; compound alone. Summed up:
as §1

Assay [10] has as its system E. cloacae P99. The experiment in a line: MIC of compound alone, broth microdilution. Conditions: strain P99; compound alone. The class given is cell-based. In a few lines: as §1
For a further assay, the target named is TEM-1 (Escherichia coli, UniProt P62593). Conditions: read-out: IC50 β-lactamase TEM-1; class (A); nitrocefin 200 μM, 30-min pre-incubation, enzyme 0.1 nM.
The next assay addresses OXA-15 (Pseudomonas aeruginosa, UniProt Q51574). As to conditions: read-out: IC50 β-lactamase OXA-15; class (D); nitrocefin 200 μM, 30-min pre-incubation, enzyme 0.4 nM.
A further assay addresses OXA-1 (Escherichia coli, UniProt P13661). Conditions: read-out: IC50 β-lactamase OXA-1; class (D); nitrocefin 200 μM, 30-min pre-incubation, enzyme 0.2 nM.
For a further assay, the target named is AmpC (PAE) (Pseudomonas aeruginosa, UniProt P24735). As to conditions: read-out: IC50 β-lactamase AmpC (PAE); class (C); nitrocefin 200 μM, 30-min pre-incubation, enzyme 0.4 nM.
For a further assay, the target named is OXA-48 (Klebsiella pneumoniae, UniProt Q6XEC0). Conditions: read-out: IC50 β-lactamase OXA-48; class (D); nitrocefin 200 μM, 30-min pre-incubation, enzyme 0.3 nM.
For a further assay, the target named is SHV-1 (Klebsiella pneumoniae, UniProt P0AD64). As to conditions: read-out: IC50 β-lactamase SHV-1; class (A); nitrocefin 200 μM, 30-min pre-incubation, enzyme 0.075 nM.

Regarding `CC(C)(O/N=C(\C(=O)N[C@@H]1C(=O)N2C(C(=O)[O-])=C(C[n+]3ccccc3)CS[C@H]12)c1csc(N)n1)C(=O)O` [CAZ, ceftazidime, reference compound], in the assay with E. coli UFR39, the minimal inhibitory concentration (MIC) is greater than 1020 µg/mL.

Consider `NC(=O)c1nn(C2=CC3CN(C2)C(=O)N3OS(=O)(=O)[O-])cc1F.[Na+]` (stereo not shown) [Example 26, sodium (7-oxo-3-(3-carboxamide-4-fluoro-pyrazol-1-yl)-1,6-diazabicyclo[3.2.1]oct-3-en-6-yl) sulfate], for which the “MIC combination of CAZ and compounds of the invention at 4 μg/mL” value (from here on “MIC combination”) in the assay on K. pneumoniae 6299 [1] was no more than 0.25 µg/mL; in the assay on K. pneumoniae BAA-1898 [2], 0.5 µg/mL; in the assay on E. coli 190317 [3], less than 0.25 µg/mL; with P. aeruginosa CIP107051 [4] it was 4 µg/mL; in the assay on E. cloacae P99 [5] it was 1 µg/mL. For the same molecule, the IC50 on KPC-2 came to 3.2 nM; on AmpC (P99), 14 nM; at OXA-11, 9.8 nM; on CMY-37, 36 nM; on CTX-M-15, 0.72 nM; at TEM-1, 0.23 nM. The half-maximal inhibitory concentration (IC50) was 13 nM at OXA-15; 33 nM on OXA-1; 130 nM on AmpC (PAE); 7.8 nM at OXA-48; 1.2 nM at SHV-1. The “MIC compounds of the invention alone” value in the assay with K. pneumoniae 6299 [6] was 16 µg/mL; in the assay on K. pneumoniae BAA-1898 [7] it was 16 µg/mL; in the assay with E. coli 190317 [8], 4 µg/mL; in the assay on P. aeruginosa CIP107051 [9] it was greater than 32 µg/mL; in the assay on E. cloacae P99 [10], 16 µg/mL.

Take `NC(=O)c1cn(C2=CC3CN(C2)C(=O)N3OS(=O)(=O)[O-])nn1.[Na+]` (stereo not shown) [Example 56, sodium [3-(4-carbamoyltriazol-1-yl)-7-oxo-1,6-diazabicyclo[3.2.1]oct-3-en-6-yl]sulfate]: the “MIC combination” value was no more than 0.25 µg/mL with K. pneumoniae 6299 [1]; no more than 0.25 µg/mL in the assay on K. pneumoniae BAA-1898 [2]; less than 0.25 µg/mL in the assay on E. coli 190317 [3]; 8 µg/mL in the assay with P. aeruginosa CIP107051 [4]; no more than 0.25 µg/mL with E. cloacae P99 [5]. Further, the concentration for half-maximal inhibition (IC50) at KPC-2 stood at 2.4 nM; on AmpC (P99) it was 12 nM; at OXA-11, 37 nM; on CMY-37 it was 38 nM; on CTX-M-15, 0.44 nM; on TEM-1 it was 0.17 nM. Besides, the half-maximal inhibitory concentration (IC50) at OXA-15 amounted to 9 nM; at OXA-1, 30 nM; on AmpC (PAE), 290 nM; on OXA-48, 0.48 nM; at SHV-1, 1 nM. Moreover, the “MIC compounds of the invention alone” value is 32 µg/mL with K. pneumoniae 6299 [6]; 32 µg/mL in the assay on K. pneumoniae BAA-1898 [7]; 4 µg/mL in the assay with E. coli 190317 [8]; greater than 32 µg/mL with P. aeruginosa CIP107051 [9]; 8 µg/mL in the assay with E. cloacae P99 [10].

With `NCCONC(=O)c1cnn(C2=CC3CN(C2)C(=O)N3OS(=O)(=O)[O-])c1.O=C(O)C(F)(F)F.[Na+]` (stereo not shown) [Example 24, sodium and 2,2,2-trifluoroacetate [7-oxo-3-[4-carboxamide,N-(2-ammoniumethoxy)-pyrazol-1-yl]-1,6-diazabicyclo[3.2.1]oct-3-en-6-yl]sulfate], the “MIC combination” value with K. pneumoniae 6299 [1] was 0.25 µg/mL; with K. pneumoniae BAA-1898 [2], 1 µg/mL; with E. coli 190317 [3], less than 0.25 µg/mL; with P. aeruginosa CIP107051 [4], 4 µg/mL; in the assay on E. cloacae P99 [5] it was 0.25 µg/mL. Further, the half-maximal inhibitory concentration (IC50) on KPC-2 came to 5.2 nM; on AmpC (P99), 12 nM; at OXA-11, 95 nM; on CMY-37 it was 16 nM; at CTX-M-15, 0.75 nM; at TEM-1, 0.37 nM. The IC50 on OXA-15 is 48 nM; at OXA-1 it was 76 nM; on AmpC (PAE) it was 160 nM; at OXA-48, 4.6 nM; on SHV-1, 2.4 nM. Further, the “MIC compounds of the invention alone” value is greater than 32 µg/mL with K. pneumoniae 6299 [6]; greater than 32 µg/mL in the assay with K. pneumoniae BAA-1898 [7]; 2 µg/mL with E. coli 190317 [8]; greater than 32 µg/mL in the assay on P. aeruginosa CIP107051 [9]; 16 µg/mL with E. cloacae P99 [10].

As to `NCc1cn(C2=CC3CN(C2)C(=O)N3OS(=O)(=O)[O-])nn1.O=C(O)C(F)(F)F.[Na+]` (stereo not shown) [Example 57, sodium and 2,2,2-trifluoroacetate [3-[4-(ammoniummethyl)triazol-1-yl]-7-oxo-1,6-diazabicyclo[3.2.1]oct-3-en-6-yl]sulfate], the “MIC combination” value in the assay on K. pneumoniae 6299 [1] is no more than 0.25 µg/mL; with K. pneumoniae BAA-1898 [2], no more than 0.25 µg/mL; with E. coli 190317 [3], less than 0.25 µg/mL; in the assay on P. aeruginosa CIP107051 [4], 4 µg/mL; with E. cloacae P99 [5] it was less than 0.25 µg/mL. The IC50 at KPC-2 was 11 nM; on AmpC (P99), 21 nM; at OXA-11 it was 170 nM; at CMY-37 it was 31 nM; on CTX-M-15, 0.75 nM; at TEM-1, 0.37 nM. Also, the 50% inhibitory concentration (IC50) came out at 6.4 nM at OXA-15; 66 nM at OXA-1; 550 nM on AmpC (PAE); 1.1 nM at OXA-48; 2.6 nM on SHV-1. The “MIC compounds of the invention alone” value with K. pneumoniae 6299 [6] is greater than 32 µg/mL; with K. pneumoniae BAA-1898 [7] it was 16 µg/mL; in the assay with E. coli 190317 [8], 0.5 µg/mL; with P. aeruginosa CIP107051 [9], 16 µg/mL; in the assay on E. cloacae P99 [10], 1 µg/mL.

What is called MIC is the lowest concentration found to suppress growth. A word on the IC50: it is the concentration that inhibits the measured activity by half.

For the origin of these results see patent publication US10722520B2, “Heterocyclic compounds and their use in preventing or treating bacterial infections” (MUTABILIS, priority 2016, dated 2020).
